ChEMBL document CHEMBL5126604, “Design, Synthesis, and Biological Evaluation of Pyrrole-2-carboxamide Derivatives as Mycobacterial Membrane Protein Large 3 Inhibitors for Treating Drug-Resistant Tuberculosis” (J Med Chem, 2022)
In brackets after ≈: the same amount, converted by molar mass.

Legend:
Vero = assay: Cytotoxicity against African green monkey vero cells assessed as reduction in cell viability measured after 48 hrs by MTT assay; format: functional, cell-based; settings: Chlorocebus sabaeus
[1] = Metabolic stability in mouse liver microsomes at 0.5 uM measured after 15 to 120 mins in absence of NADPH by LC-MS/MS analysis; format: ADME, Microsome; settings: time 15-120 min
[2] = tested on: Mycobacterium tuberculosis; assay: microbe, parasite or virus in culture; settings: H37Rv, 168 h
Description: Antimycobacterial activity against Mycobacterium tuberculosis H37Rv assessed as inhibition of bacterial growth measured after 7 days by microplate alamar blue assay

[3] = Metabolic stability in mouse liver microsomes at 0.5 uM measured after 15 to 120 mins in presence of NADPH by LC-MS/MS analysis; format: ADME, Microsome; settings: time 15-120 min
in vitro = settings: monkey, Vero cells
Description: Selectivity index, ratio of IC50 for African green monkey vero cells to MIC for Mycobacterium tuberculosis H37Rv

[4] = tested on: Mycolicibacterium smegmatis; assay: Antimycobacterial activity against Mycobacterium smegmatis harboring MsmgdeltammpL3/pMVGHI-mmpL3tb mutant assessed as reduction in bacterial growth measured after 16 hrs […]; format: functional
[5] = tested on: Mycobacterium tuberculosis; assay: Antimycobacterial activity against Mycobacterium tuberculosis mc2 6206 assessed as decrease in mycolic acid transfer to cell wall arabinogalactan measured after 16 hrs using [14C]acetate by TLC analysis; format: functional, organism-based; settings: dose 0.0625-1 µg/ml, DDE = dose-dependent effect
[6] = tested on: Mycobacterium tuberculosis; assay: microbe, parasite or virus in culture; settings: H37Rv mc2 6206, 16 h
Description: Antimycobacterial activity against Mycobacterium tuberculosis H37Rv mc2 6206 assessed as reduction in bacterial growth measured after 16 hrs by TLC analysis

[7] = tested on: Mycolicibacterium smegmatis; assay: Antimycobacterial activity against Mycobacterium smegmatis harboring MsmgdeltammpL3/pMVGHI-mmpL3tb G253E mutant assessed as reduction in bacterial growth measured after 16 hrs […]; format: functional
[8] = tested on: Mycobacterium tuberculosis; assay: Antimycobacterial activity against Mycobacterium tuberculosis mc2 6206 assessed as decrease in trehalose dimycolate measured after 16 hrs using [14C]acetate by TLC analysis; format: functional, organism-based; settings: DDE = dose-dependent effect
[9] = tested on: Mycobacterium tuberculosis; format: functional, H37Rv; settings: dose 100 mg/kg; route po; time 3-30 day
[10] = target: Voltage-gated inwardly rectifying potassium channel KCNH2 (Homo sapiens, UniProt Q12809)
Chain of Voltage-gated inwardly rectifying potassium channel KCNH2 (Q12809 whole entry): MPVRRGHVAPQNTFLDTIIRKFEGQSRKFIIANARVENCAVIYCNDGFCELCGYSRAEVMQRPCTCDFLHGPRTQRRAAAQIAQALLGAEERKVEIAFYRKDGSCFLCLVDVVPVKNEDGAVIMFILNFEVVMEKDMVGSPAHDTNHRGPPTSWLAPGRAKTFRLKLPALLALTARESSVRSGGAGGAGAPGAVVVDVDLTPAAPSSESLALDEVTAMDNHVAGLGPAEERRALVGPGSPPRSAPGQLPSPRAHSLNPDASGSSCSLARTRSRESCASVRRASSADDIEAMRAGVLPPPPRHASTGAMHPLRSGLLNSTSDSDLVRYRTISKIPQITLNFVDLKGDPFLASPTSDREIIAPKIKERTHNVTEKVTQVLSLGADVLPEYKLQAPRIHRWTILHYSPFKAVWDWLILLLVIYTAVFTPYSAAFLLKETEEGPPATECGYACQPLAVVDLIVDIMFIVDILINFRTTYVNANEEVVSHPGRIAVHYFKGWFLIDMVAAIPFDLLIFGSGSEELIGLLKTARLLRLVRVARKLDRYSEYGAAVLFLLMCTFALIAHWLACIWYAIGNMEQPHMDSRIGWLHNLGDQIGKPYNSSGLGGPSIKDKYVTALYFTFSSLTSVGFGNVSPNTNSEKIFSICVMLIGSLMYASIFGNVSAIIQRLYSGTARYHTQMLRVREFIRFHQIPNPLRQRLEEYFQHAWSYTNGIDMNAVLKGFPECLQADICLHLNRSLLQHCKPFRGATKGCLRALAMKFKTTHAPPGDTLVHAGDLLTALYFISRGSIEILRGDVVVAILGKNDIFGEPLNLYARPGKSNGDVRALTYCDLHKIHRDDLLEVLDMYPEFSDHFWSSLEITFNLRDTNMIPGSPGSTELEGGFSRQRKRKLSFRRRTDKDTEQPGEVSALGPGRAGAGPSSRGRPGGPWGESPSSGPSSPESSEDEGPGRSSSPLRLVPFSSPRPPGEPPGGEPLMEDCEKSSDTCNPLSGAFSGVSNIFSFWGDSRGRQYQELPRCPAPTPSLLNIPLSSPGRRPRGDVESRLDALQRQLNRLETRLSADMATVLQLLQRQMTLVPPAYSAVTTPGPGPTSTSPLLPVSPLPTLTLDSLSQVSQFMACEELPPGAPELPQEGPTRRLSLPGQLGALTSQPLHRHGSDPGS
Description: Inhibition of hERG potassium channel in HEK293 cells at 0.3 to 30 uM by whole-cell patch clamp assay

Row | SMILES | IC50 (Vero) | Stability [1] | MIC90 [2] | Stability [3] | further results
1 | O=C(NC1C2CC3CC(C2)CC1C3)c1cc(-c2ccc(F)cc2)c[nH]1 (stereo not drawn) | 12.6 mg/L (≈ 37.2 µM) | Stable | < 0.016 mg/L | 70.4% | selectivity ratio (in vitro): 788
2 | O=C(NC1C2CC3CC(C2)CC1C3)c1cc(-c2ccccc2F)c[nH]1 (stereo not drawn) | 12.6 mg/L (≈ 37.2 µM) | Stable | < 0.016 mg/L | 0% | selectivity ratio (in vitro): 1320
3 | COc1ccc(-c2c[nH]c(C(=O)NC3C4CC5CC(C4)CC3C5)c2)c(F)c1 (stereo not drawn) | > 64 mg/L | – | 0.47 mg/L (≈ 1.28 µM) | – | –
4 | O=C(NC12CC3CC(CC(C3)C1)C2)c1cc(-c2ccncc2F)c[nH]1 | – | – | 0.06 mg/L (≈ 0.177 µM) | – | –
5 | O=C(NC1C2CC3CC(C2)CC1C3)c1cc(-c2cccnc2)c[nH]1 (stereo not drawn) | 39.5 mg/L (≈ 123 µM) | – | 0.04 mg/L (≈ 0.124 µM) | – | selectivity ratio (in vitro): 988
6 | O=C(NC1C2CC3CC(C2)CC1C3)c1cc(-c2ccncc2)c[nH]1 (stereo not drawn) | – | – | 0.45 mg/L (≈ 1.4 µM) | – | selectivity ratio (in vitro): 99
7 | O=C(NC1C2CC3CC(C2)CC1C3)c1cc(-c2ccncc2Cl)c[nH]1 (stereo not drawn) | 58.7 mg/L (≈ 165 µM) | Stable | < 0.016 mg/L | 73.4% | selectivity ratio (in vitro): 3670
8 | O=C(NC1CCCCCCC1)c1cc(-c2ccc(F)nc2F)c[nH]1 | – | Stable | 0.03 mg/L (≈ 0.09 µM) | 25.9% | MIC90 [4]: 0.5 mg/L (≈ 1.5 µM); inhibition [5]: Dde; MIC90 [6]: 0.25 mg/L (≈ 0.75 µM); MIC=>90 [7]: 4 mg/L (≈ 12 µM); inhibition [8]: Dde
9 | O=C(NC1C2CC3CC(C2)CC1C3)c1cc(-c2ccc(Cl)nc2)c[nH]1 (stereo not drawn) | > 64 mg/L | – | 0.24 mg/L (≈ 0.674 µM) | – | –
10 | COc1ccc(-c2c[nH]c(C(=O)NC3C4CC5CC(C4)CC3C5)c2)cn1 (stereo not drawn) | – | – | 0.25 mg/L (≈ 0.711 µM) | – | selectivity ratio (in vitro): 137
11 | O=C(NC1CCCCCCC1)c1cc(-c2ccncc2F)c[nH]1 | – | – | 0.06 mg/L (≈ 0.19 µM) | – | –
12 | Cn1cc(-c2ccc(Cl)cc2Cl)cc1C(=O)NC1C2CC3CC(C2)CC1C3 (stereo not drawn) | – | – | 3.7 mg/L (≈ 9.17 µM) | – | –
13 | CN1CCN(C(=O)c2cc(-c3ccc(Cl)cc3Cl)c[nH]2)CC1 | – | – | 27.4 mg/L (≈ 81 µM) | – | –
14 | O=C(NC1CCCCC1)c1cc(-c2ccc(Cl)cc2Cl)c[nH]1 | – | – | 6.5 mg/L (≈ 19.3 µM) | – | –
15 | O=C(NC1C2CC3CC(C2)CC1C3)c1cc(-c2cccnc2Cl)c[nH]1 (stereo not drawn) | > 64 mg/L | – | 0.28 mg/L (≈ 0.787 µM) | – | –
16 | COc1cc(F)ccc1-c1c[nH]c(C(=O)NC23CC4CC(CC(C4)C2)C3)c1 | – | Stable | < 0.016 mg/L | 23.3% | –

Row | SMILES | IC50 (Vero) | Stability [1] | MIC90 [2] | Stability [3] | further results
17 | O=C(NC1CCCCCCC1)c1cc(-c2ccncc2Cl)c[nH]1 | – | – | 0.05 mg/L (≈ 0.151 µM) | – | –
18 | O=C(NC1C2CC3CC(C2)CC1C3)c1cc(-c2ccc(Cl)cc2Cl)c[nH]1 (stereo not drawn) | – | – | 0.06 mg/L (≈ 0.154 µM) | – | MIC90 [4]: 1 mg/L (≈ 2.57 µM); inhibition [5]: Dde; MIC90 [6]: 0.25 mg/L (≈ 0.642 µM); MIC=>90 [7]: >4 mg/L; inhibition [8]: Dde
19 | Cc1ccc(-c2c[nH]c(C(=O)NC3C4CC5CC(C4)CC3C5)c2)c(C)c1 (stereo not drawn) | – | – | 0.97 mg/L (≈ 2.78 µM) | – | –
20 | O=C(NC12CC3CC(CC(C3)C1)C2)c1cc(-c2ccc(F)cc2)c[nH]1 | – | – | < 0.016 mg/L | – | –
21 | O=C(NC12CC3CC(CC(C3)C1)C2)c1cc(-c2ccc(F)cc2F)c[nH]1 | – | Stable | < 0.016 mg/L | 57.4% | Activity [9]: 1.5 log10CFU; MIC90 [4]: 0.25 mg/L (≈ 0.701 µM); inhibition [5]: Dde; IC50 [10]: > 30 µM; MIC90 [6]: 0.0625 mg/L (≈ 0.175 µM); MIC=>90 [7]: 2 mg/L (≈ 5.61 µM); inhibition [8]: Dde
22 | COc1ncc(F)cc1-c1c[nH]c(C(=O)NC2C3CC4CC(C3)CC2C4)c1 (stereo not drawn) | > 64 mg/L | Stable | 0.016 mg/L (≈ 0.0433 µM) | 1.97% | –
23 | O=C(c1cc(-c2ccc(Cl)cc2Cl)c[nH]1)N1CCCCC1 | – | – | 7.7 mg/L (≈ 23.8 µM) | – | –
24 | O=C(NC1C2CC3CC(C2)CC1C3)c1cc(-c2ccc(F)nc2)c[nH]1 (stereo not drawn) | – | – | 0.09 mg/L (≈ 0.265 µM) | – | selectivity ratio (in vitro): 391
25 | O=C(NC1C2CC3CC(C2)CC1C3)c1cc(-c2ccc(F)cc2F)c[nH]1 (stereo not drawn) | – | Stable | < 0.016 mg/L | 61.4% | selectivity ratio (in vitro): 900
26 | O=C(NC12CC3CC(CC(C3)C1)C2)c1cc(-c2ccc(F)nc2F)c[nH]1 | – | Stable | < 0.016 mg/L | 47.6% | Activity [9]: 1 log10CFU; IC50 [10]: > 30 µM
27 | COc1ncc(-c2c[nH]c(C(=O)NC3C4CC5CC(C4)CC3C5)c2)cn1 (stereo not drawn) | – | – | 3.8 mg/L (≈ 10.8 µM) | – | –
28 | O=C(c1cc(-c2ccc(Cl)cc2Cl)c[nH]1)N1CCCC1 | – | – | 9.8 mg/L (≈ 31.7 µM) | – | –
29 | O=C(NC1CCCCCCC1)c1cc(-c2ccc(F)cc2)c[nH]1 | – | – | 0.03 mg/L (≈ 0.0954 µM) | – | –
30 | O=C(NC1C2CC3CC(C2)CC1C3)c1cc(-c2cccnc2F)c[nH]1 (stereo not drawn) | > 64 mg/L | Stable | 0.06 mg/L (≈ 0.177 µM) | 0% | –
31 | O=C(NC1C2CC3CC(C2)CC1C3)c1cc(-c2ccc(Cl)nc2Cl)c[nH]1 (stereo not drawn) | > 64 mg/L | – | 0.24 mg/L (≈ 0.615 µM) | – | –
